According to a melting point compilation (Tetko et al.; mined from patent text by program, amines drawn as free bases though some values may be those of a salt):

| melting point [°C] | Compound |
| --- | --- |
| 171 to 174 | COC(=O)OC(Cc1ccc(OCCc2nc(-c3ccccc3)oc2C)cc1)C(N)=O (stereo unspecified) |
| 67 to 68 | CCCCC(C)(CC)C(=O)C(Oc1ccc(-c2ccccc2)cc1)n1cnnc1 (stereo unspecified) |
| 162 to 163 | CCN(CC)CCOc1ccc(Nc2ncc3c(n2)N(c2ccccc2)C(=O)N(c2c(Cl)cccc2Cl)C3)cc1 |
| 248 to 251 | COc1cc2nc(-c3ccccn3)nc(N)c2cc1OC |
| 236 to 237 | Cc1cccc(C)c1NC(=O)Nc1sc2cc3c(cc2c1-c1ccccc1Cl)CCC3 |
| 184 to 185 | COc1cc(C(=O)N2Cc3cccn3Cc3ccccc32)ccc1N |
| 138 to 139 | Cc1cc(N)nc(CCCCCCCCCCO)c1O |
| 223 to 227 | Cc1c(C)c(N2CCN(c3ccc(S(C)=O)cc3)CC2)c(C)c2c1OC(C)(C)C2 (stereo unspecified) |
| 215 to 217 | CNn1cc(C(=O)O)c(=O)c2ccc(C)nc21 |
| 76 to 78 | CCCC(=O)c1cnc2c(OCCCN3CCCCC3)cccc2c1Nc1ccccc1C |
| 61 to 63 | CCCCCCOC(C)c1ccc(-c2ccc(OCc3ccccc3)cc2)cc1 (single isomer, unassigned; (+)) |
| 143 to 145 | CS(=O)(=O)c1ccc(-n2nc(C(F)(F)F)cc2-c2ccc(-c3ccco3)c(Cl)c2)cc1 |
| 98 to 105 | COc1ccccc1OCC(O)CNCCOc1ccc(C(N)=O)cn1 (stereo unspecified) |
| 62.5 to 63 | CCOC(C#Cc1cc(OC)c(OC)c(OC)c1)OCC |
| 201 to 202 | CCn1nc(-c2ccccc2)c(-c2csc(-c3ccc(OC)cc3)n2)c(Nc2cccnc2)c1=O |
| 141 to 143 | CCCCN1C(=O)CC(=O)N(C)c2ccccc21 |
| 128 to 130 | CCC(NC(C)=O)C(=O)O (stereo unspecified) |
| 248 | Cc1cccc(-c2n[nH]cc2-c2ccc(F)c(-c3cn(CCO)cn3)c2)n1 |
| 240 to 245 | CC1(C)NC(=O)C(C)(C)N1O |
| 164 | COc1ccc(S(=O)(=O)N(CC#N)c2ccc(Cl)cc2C(=O)c2ccccc2Cl)cc1OC |
| 150 to 151 | CCOC(=O)COc1cccc(/C=C/c2nc3ccccc3s2)c1 |
| 112 to 122 | CCCN1CCC(Cc2ccc3c(c2)c(Cc2ccc(C(=O)NS(=O)(=O)c4ccccc4C)cc2OC)cn3C)C1=O (stereo unspecified) |
| 148 to 150 | COc1cc(N)c(Cl)cc1C(=O)NCC1CCN(CCCC(=O)c2ccccc2)CC1 |
| 111 to 113 | CC(C)(C)c1ccccc1NC(=O)C(=O)O |

| melting point [°C] | Compound |
| --- | --- |
| > 260 | Cn1cncc1C(=O)NCc1cccc2c1C(=O)N(C1CCC(=O)NC1=O)C2=O (stereo unspecified) |
| 101 to 102 | COCOc1cc(CCCOc2ncccc2CC(=O)O)n(Cc2ccc(Cl)cc2Cl)n1 |
| 65 to 67 | C=CCC1(SC(C)=O)C(C)(C)c2ccccc2C1(C)C |
| 221 | O=C(NC1CCCCC1)c1c(O)c2ccccc2[nH]c1=O |
| 229 to 233 | CS(=O)(=O)Nn1c(=O)[nH]c2cc(C(F)(F)F)c(-n3cnc(Br)c3)cc2c1=O |
| 132 to 133 | CC(C)(C)OC(=O)N1CCN(c2ccc(N3CCN(Cc4ccccc4)CC3)cc2)CC1 |
| 105 to 106 | COC(=O)CN(C)c1nc(-c2ccc(Br)cc2)c(C=O)s1 |
| 153 to 155 | CCc1nc2c(C)c(N)c(C)nc2[nH]1 |
| 206 to 208 | COC(=O)c1cn(-c2cc(C(=O)OC)c(N)cc2C(F)(F)F)cn1 |
| 134 to 135 | COc1cc(Br)nc(C(=O)O)c1OCc1ccccc1 |
| 240 to 241 | COc1ccc(C2=NN(C3CCN(C(=O)CN4C(=O)CCC4=O)CC3)C(=O)C(C)(C)C2)c2c1OC(C)(C)C2 |
| 214 | Cn1c(=O)c2c(Cl)cccc2n2cnc(C(=O)OCC3CC3)c12 |
| 152 to 153 | CCN(c1ccc(C)c2cc(-c3ncc(C(C)O)s3)[nH]c12)S(=O)(=O)c1cccs1 (stereo unspecified) |
| 144 to 146 | CCCCc1c(C(=O)OCC)cc(Oc2nnnn2-c2ccccc2)c2c(OC)cccc12 |
| 163 to 164 | CC(C)COC(=O)C(N)C=CCP(=O)(O)O (stereo unspecified) |
| 239 to 240 | O=CNc1ccc(C2=NNC(=O)C3CC23)cc1 (stereo unspecified) |
| 112 to 113 | C#CCN(Cc1cc2c(=O)n(C)c(CN(CC)CC)nc2cc1Cl)c1ccc(C(=O)OC(C)(C)C)cc1 |
| 116 to 118 | Cn1nc(C(F)(F)F)c(C=O)c1O |
| 124 to 126 | CC(=O)NC(Cc1ccc(Cl)c(Cl)c1)C(=O)CCc1cc(C(F)(F)F)cc(C(F)(F)F)c1 (stereo unspecified) |
| 202 | O=C1c2ccccc2C(O)N1c1cccc(C(F)(F)F)c1 (stereo unspecified) |
| 177 to 179 | CC(C)On1c(C(C)C)nc2c(N)nc3ccccc3c21 |
| 205 to 206 | CCc1[nH]n(C2CCCC2)c2nc(-c3ccnc4ccccc34)nc(=O)c1-2 |
| 69 to 71 | CN(C)c1cccc(/C=C/c2c(F)cccc2F)c1 |
| 109 to 110 | CC(=O)OCC(=O)Nc1cccc(Cl)c1C#N |

| melting point [°C] | Compound |
| --- | --- |
| 207 to 209 | O=C(C=Cc1cc(F)cc(F)c1)c1cnc2sc3c(n12)CCCCC3 |
| 198 | Oc1ccc(N2CCN(c3ccc4ccccc4n3)CC2)cc1 |
| 256 to 258 | Oc1cc(CN/C=C2\CN=Cc3ccc(Br)cc32)ccc1OC(F)F |
| 199 to 202 | COc1ccc(C2(C#N)CCC(=O)CC2)c2c1oc1ccccc12 |
| 134 to 136 | C[Si](C)(C)C#Cc1ccc2c(C(=O)Nc3cccc(C(F)(F)F)c3)cccc2c1 |
| 264 | CCCCCCCCCNC(C)C(=O)O (stereo unspecified) |
| 70 | CC(OS(C)(=O)=O)c1ccc([N+](=O)[O-])cc1 (stereo unspecified) |
| 166 | Cc1ccc(S(=O)(=O)OCC2Cn3c(nc4ccccc43)-c3ccccc3O2)cc1 (stereo unspecified) |
| 137 to 138 | NC(=O)N(O)Cc1ccc(OCCc2csc(-c3ccccc3)n2)cc1 |
| 167 to 168 | CN(CCOc1ccc(CC2SC(=O)NC2=O)cc1)c1nc2ccccc2s1 (stereo unspecified) |
| 291 to 292 | O=C(CN1CCOCC1)Nc1ccc(-c2n[nH]c3c2Cc2ccccc2-3)cc1 |
| 153 to 156 | CCCC12CCC3C4=C(CCC3C1CCC2O)CC(OC)=CC4 (stereo unspecified) |
| 91 to 93 | CCOC(=O)N1CCc2cc(OC)c(OC)cc2CC1 |
| 148 to 150 | COc1ccc(N(C(C)C)S(=O)(=O)c2ccc(C)cc2)c([N+](=O)[O-])c1 |
| 185 to 188 | CN(C)C(=O)N(SC(N)=S)c1ccccc1 |
| 106 to 107 | CCN(CC)CCn1sc2nc(-c3ccccc3)ncc2c1=O |
| 118 to 119 | CCOC(=O)c1ccc(C(C(N)=O)C(CCc2ccccc2)c2ccccc2N2CCCCC2)cc1 (stereo unspecified) |
| 119 to 121 | CC(=O)N1N=C(c2ccncc2)OC1c1c(F)cccc1F (stereo unspecified) |
| 82 to 83 | CN(C)CCOc1ccc(C=O)c(O)c1 |
| 116 to 117 | Cc1ccnc(C(c2cc(F)ccc2F)S(=O)(=O)c2ccc(Cl)cc2)c1 (stereo unspecified) |
| 120 to 121 | Cc1[nH]c2ccccc2c1CCC(=O)N1CCN(c2ccccc2)CC1 |
| 72 to 73 | CCCCCCOc1ccc(O)c2cc(C)c(C)cc12 |
| 110 to 111 | COC(=O)c1[nH]c2c(Cl)ccc(Cl)c2c1C |
| 210 to 213 | Nc1nc(Cl)c(CCCl)c(Cl)n1 |

| melting point [°C] | Compound |
| --- | --- |
| 136 to 138 | CC(C)C(Cl)C(=O)Nc1c(C(=O)CC(=O)Nc2ccccn2)cccc1C(F)(F)F (stereo unspecified) |
| 219 to 221 | CC12CCC3c4ccc(OCc5ccccc5)c(N)c4CCC3C1CCC2=O (stereo unspecified) |
| 70 | N#Cc1ccccc1CNC(=O)C1Cc2ccccc2N1S(=O)(=O)c1ccc(-c2cccc(C(F)(F)F)c2)cc1 (stereo unspecified) |
| 202 to 204 | CCCCOC(=O)NS(=O)(=O)c1ccccc1-c1ccc(Cn2c(CCC)nc(SC)c2C(=O)O)cc1 |
| 180 to 195 | C[C@@H](NC(=O)c1c[nH]c2ncc(-c3nn(C)c4cc(C(C)(C)C)ccc34)nc12)C(=O)N1CC(C#N)C1 |
| 81 to 84 | COc1ccc(CNc2nc(OCc3ccccn3)ncc2C(=O)c2ccccn2)cc1Cl |
| 125 | COC(=O)c1cccc2c(Cl)c(OC)ccc12 |
| 39 to 41 | CCCc1c(OCCCCCCCC(=O)OC)ccc(C(C)=O)c1O |
| 173 to 174 | CN(C)c1cc(-c2c[nH]cn2)ccn1 |
| 82 | CCCN(CCC)C1CCc2cccc(-c3ccc4ccccc4n3)c2C1 (stereo unspecified) |
| 189 to 192 | COc1ccc(Nc2nc(OCC3CCCCC3)c3[nH]cnc3n2)cc1 |
| 60 to 62 | CC(C)c1ccn2nc(S(=O)(=O)Cl)nc2n1 |
| 69 to 74 | Cc1c(C(=O)c2cnn(C(C)(C)C)c2O)ccc(S(C)(=O)=O)c1C1=NOC2CC12 (stereo unspecified) |
| 95 to 96 | COc1ccc(CSC2CNC(=O)C2)cc1 (stereo unspecified) |
| 262 to 264 | Fc1cc2c(Nc3ccc(Br)c(Br)c3)ncnc2cn1 |
| 126 to 129 | Cc1cc2c(o1)c(-c1ccc(COC(=O)CCC(=O)O)o1)nn2Cc1ccccc1 |
| 151 to 153 | COc1ccc(CC2NC(=O)NC2=O)cc1OC1CCCC1 (stereo unspecified) |
| 208 to 210 | N#Cc1cnn(-c2c(Cl)cc(Cl)cc2Cl)c1N |
| 114 to 116 | COc1cncc2nc(SCc3ccccc3)nn12 |
| 160 to 165 | CCN(CC)C(=O)/C=C/c1ccc(Cn2c(-c3ccc(O)cc3)c(C)c3cc(O)ccc32)cc1 |
| 208 | CNc1c(NCCSCc2[nH]cnc2C)c(=O)c1=O |
| 80 | CC(=O)OCC1=C(C(=O)OC(C)(C)C)N2C(=O)C(NC(=O)CC3=CSCCS3)C2SC1 (stereo unspecified) |
| 97 to 98 | Cc1csc(NC(=O)N(C)C)n1 |

| Compound | melting point [°C] |
| --- | --- |
| C=CCN1CCc2cc(OC)c(OC)c3c2C1Cc1cc(OC)c(OC)cc1-3 (single isomer, unassigned; (+)) | 139 to 143 |
| CC(=O)OC1(C(C)CN(C)C)CCCCC1c1ccccc1 (single isomer, unassigned; (-)) | 63 to 66 |
| COc1ccc(Nc2nc(NC3CCCCCC3)nc(N(C)C3CCN(C)CC3)n2)cc1Cl | 173 to 176 |
| O=C1C=C(NC(=O)C(=O)c2cn(Cc3ccc(Cl)cc3)c3ccccc23)CS1 | 248 to 250 |
| CCCCC1(N2CCCC2)CCC(c2[nH]c3ccccc3c2CCc2ccncc2)CC1 (stereo unspecified) | 165 to 175 |
| COc1ccccc1Oc1c(O)nc(O)nc1O | 202 to 204 |
